Laboratory results: ChEMBL document CHEMBL4130413, “1-Aryl-1H- and 2-aryl-2H-1,2,3-triazole derivatives blockade P2X7 receptor in vitro and inflammatory response in vivo” (Eur J Med Chem, 2017)

Legend:
[1] = test system: Peritoneal macrophage; assay: Toxicity in Swiss mouse peritoneal macrophages assessed as LDH release at 10 uM after 60 mins relative to 0.05% Triton X-100; assay type: cell-based; settings: 1 h
[2] = molecular target: T1, P2X purinoceptor 7 (Homo sapiens) (UniProt Q99572); assay: Antagonist activity at human P2X7 receptor expressed in HEK293 cells assessed as inhibition of ATP-induced ethidium iodide uptake at 10 uM preincubated for 10 mins followed by ATP addition measured after 20 mins by FLIPR assay relative to 1 mM ATP; assay type: cell-based
T1 sequence (whole entry): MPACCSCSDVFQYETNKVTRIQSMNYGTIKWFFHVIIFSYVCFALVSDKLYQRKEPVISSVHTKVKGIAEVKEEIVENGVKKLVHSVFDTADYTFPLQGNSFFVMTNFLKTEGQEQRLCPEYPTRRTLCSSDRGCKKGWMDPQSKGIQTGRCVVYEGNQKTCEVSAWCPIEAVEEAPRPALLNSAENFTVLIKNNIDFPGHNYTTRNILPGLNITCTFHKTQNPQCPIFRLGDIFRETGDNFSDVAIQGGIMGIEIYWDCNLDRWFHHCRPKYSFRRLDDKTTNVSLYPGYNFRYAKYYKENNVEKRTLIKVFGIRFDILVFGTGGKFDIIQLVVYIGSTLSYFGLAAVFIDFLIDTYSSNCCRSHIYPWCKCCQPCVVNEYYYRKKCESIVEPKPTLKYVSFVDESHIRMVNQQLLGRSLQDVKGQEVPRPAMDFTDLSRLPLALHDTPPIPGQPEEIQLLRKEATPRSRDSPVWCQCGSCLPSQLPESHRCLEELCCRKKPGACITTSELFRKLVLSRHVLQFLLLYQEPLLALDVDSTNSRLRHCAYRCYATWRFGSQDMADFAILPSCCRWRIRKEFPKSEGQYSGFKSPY

[3] = molecular target: P2X purinoceptor 7 (Mus musculus) (UniProt Q9Z1M0); assay: Antagonist activity at P2X7 receptor in Swiss mouse peritoneal macrophages assessed as inhibition of ATP-induced propidium iodide uptake at 10 uM after 30 mins by FLIPR assay relative to 1 mM ATP

| Structure (SMILES) | Activity [1] | inhibition [2] | inhibition [3] |
| --- | --- | --- | --- |
| CC(=O)OCc1cn(-c2cc(Cl)cc(Cl)c2)nn1 | 45.33% | 29.4% | 65.2% |
| OCc1cn(-c2ccccc2)nn1 | 20.98% | 30.1% | 10.9% |
| CCCCCCCCCC(=O)OCc1cnn(-c2ccccc2)n1 | 42.5% | 19.2% | 29.5% |
| CCCCOCc1cn(-c2ccc(OC)cc2)nn1 | 27.66% | 51.3% | 31.4% |
| CCOCc1cn(-c2cc(Cl)ccc2Cl)nn1 | 42.66% | 45.3% | 75.5% |
| OCc1cn(-c2ccc(Cl)cc2)nn1 | 15.57% | 26.1% | 22.5% |
| OCc1cn(-c2cc(Cl)cc(Cl)c2)nn1 | 30.55% | 41.1% | 11.4% |
| O=Cc1cnn(-c2ccccc2)n1 | 41.65% | 42.1% | 31.5% |
| CC(=O)OCc1cnn(-c2ccccc2)n1 | 38.5% | 80.1% | 73.5% |
| CCCOCc1cn(-c2cc(Cl)cc(Cl)c2)nn1 | 14.03% | 33.7% | 24% |
| O=C(OCc1cnn(-c2ccccc2)n1)C1CCCC1 | 43.04% | 10.2% | 29.6% |
| CCCOCc1cn(-c2cc(Cl)ccc2Cl)nn1 | 22.66% | 46.6% | 24% |
| O=C(OCc1cn(-c2cc(Cl)cc(Cl)c2)nn1)c1ccccc1 | 24.02% | 2.96% | 14.2% |
| CCOCc1cn(-c2ccc(OC)cc2)nn1 | 20.66% | 45% | 44.8% |
| CCOCc1cn(-c2ccccc2)nn1 | 52.73% | 56.7% | 49.3% |
| CCCCCCCCCC(=O)OCc1cn(-c2ccccc2)nn1 | 42.53% | 23.2% | 60% |

| Structure (SMILES) | Activity [1] | inhibition [2] | inhibition [3] |
| --- | --- | --- | --- |
| CCCCCCCCCC(=O)OCc1cn(-c2cc(Cl)ccc2Cl)nn1 | 10% | 1.17% | 9.86% |
| O/N=C/c1cn(-c2cc(Cl)cc(Cl)c2)nn1 | 29.47% | 62.1% | 58% |
| COc1ccc(-n2cc(COC(=O)c3ccccc3)nn2)cc1 | 10.66% | 10.6% | 24.4% |
| CCCOCc1cn(-c2ccc(Cl)cc2)nn1 | 26.66% | 62.4% | 32.5% |
| OCc1cn(-c2cc(Cl)ccc2Cl)nn1 | 12.09% | 38.1% | 28.3% |
| O=C(OCc1cnn(-c2ccccc2)n1)c1ccccc1 | 36.94% | 88.2% | 81.3% |
| O=C(OCc1cn(-c2ccccc2)nn1)c1ccccc1 | 58.1% | 16.1% | 32.1% |
| CC(=O)OCc1cn(-c2ccccc2)nn1 | 36.39% | 81% | 84% |
| CCCOCc1cn(-c2ccc(OC)cc2)nn1 | 13.03% | 35.8% | 15.6% |
| CC(=O)OCc1cn(-c2ccc(Cl)cc2)nn1 | 19.66% | 9.89% | 23.2% |
| CCCCOCc1cn(-c2ccc(Cl)cc2)nn1 | 30.33% | 15.1% | 35.8% |
| O=C(OCc1cn(-c2ccc(Cl)cc2)nn1)c1ccccc1 | 45.73% | 26.8% | 60.6% |
| O=Cc1cn(-c2cc(Cl)ccc2Cl)nn1 | 13.73% | 44% | 36.7% |
| O=C(OCc1cn(-c2cc(Cl)ccc2Cl)nn1)C1CCCC1 | 22.66% | 7.28% | 20.6% |
| CCCCC(=O)OCc1cn(-c2ccc(OC)cc2)nn1 | 46.3% | 8.15% |  |
